Measured values reported in patent publication US8501759B2, “Use of fibrates” (Fournier Laboratories Ireland Limited, priority 2009, dated 2013).

Columns and labels:
[1] = tested on: patients with sleep apnea syndrome; experiment: Overnight sleep study: pulse oximetry (SpO2, desaturations); format: in vivo, human
From the text: (§1) Primary variables: number of obstructive apneas, of central apneas, of mixed apneas, total number of apneas, index of apnea per sleep hour, total number of hypopneas, index of hypopnea per sleep hour, index of apnea/hypopnea per sleep hour, total number of desaturations per sleep hour (with a variation of at least 3-4%), and percentage of time spent with SpO2<90%.
(§2) Variables assessed as complementary analyses: cumulated duration of apnea, mean duration of apnea, duration of the longest apnea, number of non cortical micro-awakening indicators related to respiratory events/hour, number of non cortical micro-awakening indicators related to respiratory events, oxygen saturation in blood measured by pulse oximetry (SpO2) in wake state, mean SpO2 on sleep recording, minimum value of SpO2, percentage of time spent with SpO2<80%, percentage of time spent with SpO2<85%, number of tachycardia, mean duration of tachycardia, number of bradycardia, mean duration of bradycardia, mean pulse rate, standard deviation pulse rate, minimum pulse rate, maximum pulse rate, decrease in daytime sleepiness assessed by the ESS, vigilance tests (reflexive visually guided saccades, antisaccades and sustained attention test).
Desaturation episodes were the markers of respiratory impairment. All-night recordings of arterial oxygen saturation were obtained using a cardio-respiratory pulse oximeter attached to the finger (SpO2).
Severity of obstructive sleep apnea was measured by the number of falls in SpO2 of more than 3-4% per hour of sleep. The equipment automatically selected the desaturation threshold (3 or 4%) according to the baseline SpO2 value. To further define the severity of OSA, the lowest SpO2 point and the percentage of time spent with SpO2<90% was determined.

[2] = tested on: patients with sleep apnea syndrome; experiment: Epworth Sleepiness Scale (ESS); format: in vivo, human; details: fenofibrate group, at baseline and at end of treatment; global score 0 to 24
From the text: as §2
This scale is the most widely index used to measure sleep apnea subjectively. It is a self-administered questionnaire that asks patients their likelihood of falling asleep in 8 situations ranked from 0 (no chance of dozing), 1 (slight chance of dozing), 2 (moderate chance of dozing) to 3 (high chance of dozing). The numbers are then added together to obtain a global score between 0 and 24. A value of 10 or below is considered normal.

[3] = tested on: patients with sleep apnea syndrome; experiment: Laboratory efficacy variables (lipids, glucose, fibrinogen, insulin); format: in vivo, human
Description: Secondary variables: % change from baseline (V2) in fasting and post-prandial TG, total cholesterol (TC), high-density lipoprotein cholesterol (HDL-C), fasting plasma glucose (FPG), fibrinogen and insulin.
TC, TG, HDL-C, glucose, fibrinogen and insulin were measured at inclusion and during the 2 hospital admissions before a lipid rich breakfast. Insulin was also measured before the lipid rich breakfast, each morning following the sleep study.
Post-prandial TG were measured 4 hours after a lipid rich breakfast.

[4] = 160 mg tablet administered with food; cited from earlier work
[5] = tested on: patients with sleep apnea syndrome; experiment: Sustained attention test; details: end of treatment (V3)
[6] = tested on: patients with sleep apnea syndrome; experiment: Overnight sleep study: apnea/hypopnea recording (CID 102) in the 1-month placebo-controlled study; format: in vivo, human
From the text: This study comprised 2 phases: • a run-in period of 1 to 5 weeks, on usual diet, • a treatment period of at least 4 weeks (40 days maximum).
as §1, §2
Throughout the night, respiration was monitored by a sound pressure transducer placed on the suprasternal notch facing the trachea or thoracic strain gauges (model CID 102) (Van Surell C, Lemaigre D, Leroy M, Foucher A, Hagenmuller M P, Raffestin B. Evaluation of an ambulatory device, CID 102, in the diagnosis of obstructive sleep apnea syndrome. Eur Respir J. 1995; 8(5):795-800).
Apnea is defined as an absence of inspiratory flow for at least 10 seconds.
Hypopnea is defined as a 50% to 80% reduction in airflow combined with 3-4% oxygen desaturations.
Sleep apneas are classified as obstructive or central.
Central apneas are defined as total absence of inspiratory flow and chest/abdominal movement during the period of absence of inspiration flow.
Obstructive sleep apneas are defined by a decrease in airflow of more than 80% in the presence of paradoxical movements of the ribcage and abdomen. Similar to AHI, the obstructive and central apneas were based on definitions that require events to be associated with 3-4% desaturations.

[7] = tested on: patients with sleep apnea syndrome; experiment: Safety (adverse events, safety laboratory, vital signs)
[8] = ANCOVA on Log-transformed V3 values, relative difference
[9] = end of treatment (V3), ANCOVA on non-transformed data
[10] = fenofibrate 145 mg group, end of treatment (V3)
[11] = end of treatment (V3), ANCOVA on Log-transformed data, relative difference
[12] = end of treatment (V3), ANCOVA on non-transformed data, absolute difference
[13] = fenofibrate group, treatment period

## CC(C)OC(=O)C(C)(C)Oc1ccc(C(=O)c2ccc(Cl)cc2)cc1 [Fenofibrate, fenofibrate]
[1]; [8]
  Number of desaturations, Fenofibrate-Placebo at end of treatment, Estimate: −23%
[1]; [9]
  Mean of SPO2 on recording, Fenofibrate-Placebo Estimate: 1.1%
  Minimum value of SpO2, Fenofibrate-Placebo Estimate: 0.4%
[1]; [10]
  Mean of SPO2 on recording, End (V3) (median): 94.0%
  Minimum value of SpO2, End (V3) (median): 82.0%
  Number of desaturations, End (V3) (median): 130.0
  Percentage of time with SpO2 < 90%, End (V3) (median): 3.5%
  Percentage time spent with SpO2 < 80%, End (V3) (median): 0.0%
  Percentage time spent with SpO2 < 85%, End (V3) (median): 0.0%
  SpO2 in wake state, End (V3) (median): 95.0%
[2]
  median of the ESS: 8.5
[3]; end of treatment
  effect on fasting plasma glucose (FPG): no effect
[3]; [11]
  HDL-Cholesterol, Fenofibrate-Placebo Estimate: 2%
  Post-Prandial Triglycerides, Fenofibrate-Placebo Estimate: −26%
[3]; [12]
  Fasting Plasma Glucose, Fenofibrate-Placebo Estimate: 0.2 mmol/L
  Fibrinogen, Fenofibrate-Placebo Estimate: -1.7 µmol/L
  Insulin, Fenofibrate-Placebo Estimate: 12.1 pmol/L
  Total Cholesterol, Fenofibrate-Placebo Estimate: -0.8 mmol/L
[3]; [10]
  Fasting Plasma Glucose, End (V3) (median): 5.45 mmol/L
  Fasting Triglycerides, End (V3) (median): 2.00 mmol/L
  Fibrinogen, End (V3) (median): 8.82 µmol/L
  Insulin, End (V3) (median): 94.4 pmol/L
  Total Cholesterol, End (V3) (median): 4.58 mmol/L
[3]; fenofibrate 145 mg group, end of treatment (V3), 4 hours after a lipid rich breakfast
  Post-Prandial Triglycerides, End (V3) (median): 3.27 mmol/L
[4]
  increase of exposure to fenofibric acid with food compared to fasting conditions: 35%
[5]; ANCOVA on Log-transformed data, relative difference
  Maximum latency all sarters, Fenofibrate-Placebo Estimate: 7%
[5]; ANCOVA on non-transformed data, absolute difference
  Mean latency all sarter, Fenofibrate-Placebo Estimate: 3.6 ms
[5]; fenofibrate 145 mg group
  Maximum latency all sarters, End (V3) (median): 750.0 ms
  Minimum latency all sarters, End (V3) (median): 295.0 ms
  Percent false responses all sarters, End (V3) (median): 1.1
  Percent omissions all sarters, End (V3) (median): 0.0
  Standard Deviation latency all sarters, End (V3) (median): 98.0 ms
[5]; fenofibrate 145 mg group, mean of the 5 tests
  Mean latency all sarter, End (V3) (median): 409.7 ms
[6]; [8]
  Number of central apneas, Fenofibrate-Placebo at end of treatment, Estimate: −55%
  Number of hypopneas, Fenofibrate-Placebo at end of treatment, Estimate: −46%
  Number of mixed apneas, Fenofibrate-Placebo at end of treatment, Estimate: −25%
  Number of obstructive apneas, Fenofibrate-Placebo at end of treatment, Estimate: −44%
[6]; ANCOVA on Log-transformed V3 values, relative difference, minus = improvement
  Number of apneas, Fenofibrate-Placebo at end of treatment, Estimate: −35%
[6]; end of treatment (V3), ANCOVA on Log-transformed data
  Cumulated duration of apnea, Fenofibrate-Placebo Estimate: −31%
[6]; [9]
  Number of non cortical micro-awakening, Fenofibrate-Placebo Estimate: −75.7
[6]; [10]
  Cumulated duration of apnea, End (V3) (median): 4.5 min
  Duration of the longest apnea, End (V3) (median): 23.5 s
  Mean duration of apnea, End (V3) (median): 13.5 s
  Number of central apneas, End (V3) (median): 1.0
  Number of hypopneas, End (V3) (median): 63.0
  Number of mixed apneas, End (V3) (median): 1.0
  Number of non cortical micro-awakening, End (V3) (median): 128.0
  Number of obstructive apneas, End (V3) (median): 15.0
[6]; fenofibrate 145 mg group, end of treatment (V3), total number during sleep recording
  Number of apneas, End (V3) (median): 20.5
[6]; fenofibrate 145 mg group, end of treatment (V3), indicators related to respiratory events
  Non cortical micro-awakening per hour, End (V3) (median): 18.0
[7]; 4-week treatment, 145 mg once daily
  tolerability: well tolerated
[7]; either treatment group
  changes in mean values of pulse rate, DBP or SBP between baseline and end of treatment: no meaningful changes
[7]; end of treatment
  other safety biological variables (ALT, AST, CK), fenofibrate vs placebo: did not differ between the 2 groups
[7]; fenofibrate group
  Median % change at end of treatment from baseline in RBC: −2.7%
  Median % change at end of treatment from baseline in WBC: −11.6%
  Median % change at end of treatment from baseline in hematocrit: −3.2%
  Median % change at end of treatment from baseline in hemoglobin: −3.8%
[7]; [13]
  AEs reported (kinds): bloating (n=1), rash (n=1), allergic rhinitis (n=1), metabolic syndrome (SAE, n=1), type 2 diabetes (n=1), and cystitis (n=1)
  number of AEs reported: 6
  number of patients with AEs: 3
[7]; fenofibrate group, hospitalized for assessment of metabolic syndrome, not related to study treatment
  number of SAE reported during the treatment period: 1
[7]; fenofibrate group, p=0.007 vs placebo
  Median % change at end of treatment from baseline in platelets: +4.7%
[7]; fenofibrate group, p=0.015 vs placebo
  Median % change at end of treatment from baseline in creatinine: +5.9%
[7]; in vivo
  mean values of body weight and BMI at end of treatment compared to baseline: remained roughly unchanged
[7]; treatment period
  AEs considered as related to study treatment: None
